In patent publication US10294202B2, “Pyrrolidinones as herbicides” (FMC Corporation, priority 2013, dated 2019):
Where two headings read alike, the source gives them in different places.

Tests used:
wheat = assay: Test A pre-/postemergence herbicide test; format: in vivo, Triticum aestivum; settings: for Wheat plant response rating: Preemergence, visual rating on 0 to 100 scale (0 no effect, 100 complete control); for plant injury at 125 g/ha / plant injury at 500 g/ha: Triticum aestivum, 240 h, read-out: Plant response rating, Wheat
How it was run: (§1)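 Formulated compound (non-phytotoxic solvent, surfactant) sprayed pre- onto soil of seeded loam/sand pots or post- onto seedlings at 1–2 leaves; ~10 d greenhouse; 0–100 visual control rating versus untreated.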

pigweed = assay: Test A pre-/postemergence herbicide test; format: in vivo, Amaranthus retroflexus; settings: for Pigweed plant response rating: Preemergence, visual rating on 0 to 100 scale (0 no effect, 100 complete control); for pest or weed control at 125 g/ha / pest or weed control at 500 g/ha: Amaranthus retroflexus, 240 h, read-out: Plant response rating, Pigweed
How it was run: as §1

corn [1] = assay: Test A pre-/postemergence herbicide test; format: in vivo, Zea mays; settings: for Corn plant response rating: Preemergence, visual rating on 0 to 100 scale (0 no effect, 100 complete control); for Corn plant response rating (crop injury, 0 = no effect, 100 = complete kill) at 125 g/ha / Corn plant response rating (crop injury, 0 = no effect, 100 = complete kill) at 500 g/ha: Zea mays, 240 h
How it was run: as §1

nutsedge, yellow = assay: Test C pre-/postemergence herbicide test; format: in vivo, Cyperus esculentus; settings: Preemergence
Text: (§2) Seeds of plant species selected from blackgrass (Alopecurus myosuroides), ryegrass, Italian (Italian ryegrass, Lolium multiflorum), wheat (winter wheat, Triticum aestivum), galium (catchweed bedstraw, Galium aparine), corn (Zea mays), crabgrass, large (large crabgrass, Digitaria sanguinalis), foxtail, giant (giant foxtail, Setaria faberii), johnsongrass (Sorghum halepense), lambsquarters (Chenopodium album), morningglory (Ipomoea coccinea), nutsedge, yellow (yellow nutsedge, Cyperus esculentus), pigweed (Amaranthus retroflexus), ragweed (common ragweed, Ambrosia elatior), soybean (Glycine max), barnyardgrass (Echinochloa crus-galli), oilseed rape (Brassica napus), waterhemp (common waterhemp, Amaranthus rudis), kochia (Kochia scoparia), oat, wild (wild oat, Avena fatua), surinam grass (Brachiaria decumbens), foxtail, green (green foxtail, Setaria viridis), goosegrass (Eleusine indica), bromegrass, downy (downy bromegrass, Bromus tectorum), nightshade (eastern black nightshade, Solanum ptycanthum), cocklebur (common cocklebur, Xanthium strumarium), cupgrass, woolly (woolly cupgrass, Eriochloa villosa), bermudagrass (Cynodon dactylon), sunflower, (common oilseed sunflower, Helianthus annuus), Russian thistle (Salsola kali) and velvetleaf (Abutilon theophrasti) were planted into a blend of loam soil and sand and treated preemergence with test chemicals formulated in a non-phytotoxic solvent mixture which included a surfactant. At the same time, plants selected from these crop and weed species and also barley (winter barley, Hordeum vulgare), […]), chickweed (common chickweed, Stellaria media), deadnettle (henbit deadnettle, Lamium amplexicaule), and canarygrass (littleseed canarygrass, Phalaris minor) were planted in pots containing Redi-Earth® planting medium (Scotts Company, 14111 Scottslawn Road, Marysville, Ohio 43041) comprising spaghnum peat moss, vermiculite, wetting agent and starter nutrients and treated with postemergence applications of test chemicals formulated in the same manner. Plants ranged in height from 2 to 18 cm (1- to 4-leaf stage) for postemergence treatments. Treated plants and controls were maintained in a greenhouse for 13 to 15 days, after which time all species were compared to controls and visually evaluated. Plant response ratings, summarized in Table C, are based on a scale of 0 to 100 where 0 is no effect and 100 is complete control. A dash (-) response means no test result.

ryegrass, Italian = assay: Test C pre-/postemergence herbicide test; format: in vivo, Lolium multiflorum; settings: Preemergence
Text: as §2

corn [2] = assay: Test C pre-/postemergence herbicide test; format: in vivo, Zea mays; settings: Preemergence
Text: as §2

ragweed = assay: Test C pre-/postemergence herbicide test; format: in vivo, Ambrosia elatior; settings: Preemergence
Text: as §2

johnsongrass = assay: Test C pre-/postemergence herbicide test; format: in vivo, Sorghum halepense; settings: Preemergence
Text: as §2

morningglory = assay: Test C pre-/postemergence herbicide test; format: in vivo, Ipomoea coccinea; settings: Preemergence
Text: as §2

[3] = Postemergence, 500 g ai/ha, 0 to 100 scale (0 no effect, 100 complete control)
[4] = preemergence, 500 g ai/ha, 0 to 100 scale
[5] = Postemergence, 125 g ai/ha, 0 to 100 scale, 0 no effect, 100 complete control
[6] = 125 g ai/ha, scale 0 to 100 (0 no effect, 100 complete control)
[7] = Postemergence, 125 g ai/ha, 0 to 100 scale, 0 is no effect, 100 is complete control
[8] = post-emergence, Postemergence, 125 g ai/ha, 0 to 100 scale, 0 no effect, 100 complete control
[9] = post-emergence, Postemergence, 500 g ai/ha, 0 to 100 scale (0 no effect, 100 complete control)
[10] = pre-emergence, preemergence, 500 g ai/ha, 0 to 100 scale

O=C1NCC(c2ccc(F)c(F)c2)C1C(=O)Nc1ccccc1C(F)(F)F (racemic) [Compound 6]
Plant response rating, Wheat (wheat; [3]): 0 | Wheat plant response rating (wheat; 125 g ai/ha): 0 | Plant response rating, Wheat (wheat; [4]): 0 | Plant response rating, Pigweed (pigweed; [3]): 10 | Pigweed plant response rating (pigweed; 125 g ai/ha): 0 | Plant response rating, Pigweed (pigweed; [4]): 0 | Plant response rating, Corn (corn [1]; [5]): 0 | Plant response rating, Corn (corn [1]; [3]): 0 | Corn plant response rating (corn [1]; 125 g ai/ha): 0 | Plant response rating, Corn (corn [1]; [4]): 0

O=C1NCC(c2ccc(Cl)c(Cl)c2)C1C(=O)Nc1ccccc1F (racemic) [Compound 14]
Plant response rating, Wheat (wheat; [5]): 0 | Plant response rating, Wheat (wheat; [3]): 0 | Wheat plant response rating (wheat; 125 g ai/ha): 0 | Plant response rating, Wheat (wheat; [4]): 0 | Plant response rating, Nutsedge, Yellow (nutsedge, yellow; 62 g ai/ha, scale 0 to 100): 0 | Plant response rating, Nutsedge, Yellow (nutsedge, yellow; [6]): 0 | Plant response rating, Ryegrass, Italian (ryegrass, Italian; 62 g ai/ha, scale 0 to 100): 0 | Plant response rating, Ryegrass, Italian (ryegrass, Italian; [6]): 0 | Plant response rating, Corn (corn [2]; 62 g ai/ha, scale 0 to 100): 0 | Plant response rating, Corn (corn [2]; [6]): 0 | Corn plant response rating (corn [2]; 31 g ai/ha, scale 0 to 100 (0 no effect, 100 complete control)): 0 | Plant response rating, Corn (corn [2]; 250 g ai/ha, scale 0 to 100 (0 no effect, 100 complete control)): 0 | Plant response rating, Pigweed (pigweed; [5]): 0 | Plant response rating, Pigweed (pigweed; [3]): 0 | Pigweed plant response rating (pigweed; 125 g ai/ha): 0 | Plant response rating, Pigweed (pigweed; [4]): 20 | Plant response rating, Ragweed (ragweed; 62 g ai/ha, scale 0 to 100): 0 | Plant response rating, Ragweed (ragweed; [6]): 0 | Plant response rating, Corn (corn [1]; [5]): 0 | Plant response rating, Corn (corn [1]; [3]): 0 | Corn plant response rating (corn [1]; 125 g ai/ha): 0 | Plant response rating, Corn (corn [1]; [4]): 0 | Plant response rating, Johnsongrass (johnsongrass; 62 g ai/ha, scale 0 to 100): 0 | Plant response rating, Johnsongrass (johnsongrass; [6]): 0 | Plant response rating, Morningglory (morningglory; 62 g ai/ha, scale 0 to 100): 0 | Plant response rating, Morningglory (morningglory; [6]): 0

O=C1NCC(c2cccc(C(F)F)c2)C1C(=O)Nc1ccccc1F (racemic) [Compound 210]
Plant response rating, Wheat (wheat; [7]): 0 | Wheat plant response rating (0 to 100 scale, 0 is no effect, 100 is complete control) (wheat; Postemergence, 500 g ai/ha): 50 | Plant response rating, Pigweed (pigweed; 125 g ai/ha, visual rating, 0 to 100 scale, 0 no effect, 100 complete control, approximately 10 days, preemergence): 0 | Plant response rating, Pigweed (pigweed; [7]): 0 | Pigweed plant response rating (0 to 100 scale, 0 is no effect, 100 is complete control) (pigweed; Postemergence, 500 g ai/ha): 20 | Plant response rating, Pigweed (pigweed; preemergence, 500 g ai/ha, 0 to 100 scale, 0 is no effect and 100 is complete control): 50 | Plant response rating, Corn (corn [1]; [7]): 0 | Corn plant response rating (0 to 100 scale, 0 is no effect, 100 is complete control) (corn [1]; Postemergence, 500 g ai/ha): 60

O=C1NCC(Br)(c2ccccc2)C1C(=O)Nc1ccccc1F (centres unmarked) [Compound 92, 4-bromo-N-(2-fluorophenyl)-2-oxo-4-phenyl-3-pyrrolidinecarboxamide]
Wheat plant response rating (wheat; 125 g ai/ha): 0 | plant injury at 125 g/ha (wheat; [8]): 0% | plant injury at 500 g/ha (wheat; [9]): 0% | plant injury at 500 g/ha (wheat; [10]): 0% | pest or weed control at 125 g/ha (pigweed; [8]): 0% | pest or weed control at 500 g/ha (pigweed; [9]): 0% | pest or weed control at 500 g/ha (pigweed; [10]): 0% | Pigweed plant response rating (pigweed; 125 g ai/ha): 0 | Corn plant response rating (corn [1]; 125 g ai/ha): 0 | Corn plant response rating (crop injury, 0 = no effect, 100 = complete kill) at 125 g/ha (corn [1]; [8]): 0% | Corn plant response rating (crop injury, 0 = no effect, 100 = complete kill) at 500 g/ha (corn [1]; [9]): 0% | Corn plant response rating (crop injury, 0 = no effect, 100 = complete kill) at 500 g/ha (corn [1]; [10]): 0%

O=C1NCC(c2ccccc2)C1(Br)C(=O)Nc1ccccc1F (centres unmarked) [Compound 93, 3-bromo-N-(2-fluorophenyl)-2-oxo-4-phenyl-3-pyrrolidinecarboxamide]
Wheat plant response rating (wheat; 125 g ai/ha): 0 | plant injury at 125 g/ha (wheat; [8]): 0% | plant injury at 500 g/ha (wheat; [9]): 0% | plant injury at 500 g/ha (wheat; [10]): 0% | pest or weed control at 125 g/ha (pigweed; [8]): 0% | pest or weed control at 500 g/ha (pigweed; [9]): 0% | pest or weed control at 500 g/ha (pigweed; [10]): 0% | Pigweed plant response rating (pigweed; 125 g ai/ha): 0 | Corn plant response rating (corn [1]; 125 g ai/ha): 0 | Corn plant response rating (crop injury, 0 = no effect, 100 = complete kill) at 125 g/ha (corn [1]; [8]): 0% | Corn plant response rating (crop injury, 0 = no effect, 100 = complete kill) at 500 g/ha (corn [1]; [9]): 0% | Corn plant response rating (crop injury, 0 = no effect, 100 = complete kill) at 500 g/ha (corn [1]; [10]): 0%
